Test results as given in paper PMC8443696, “Structural determinants and regulation of spontaneous activity in GABAA receptors” (Nature Communications, 2021).
Where “and” joins values, the source holds several entries; their conditions need not be identical. Identical values can stand only once. Like-named read-outs stand apart in the source and are kept apart here.

Columns and labels:
α4β3δ receptors [1] = format: cell-based, mouse; design: spontaneous activity, Supp. Fig. 3e: unit not given here; details: for Ispont during staurosporine application: 200 nM staurosporine
From the text: (§1) All components were obtained from Life Technologies.
(§2) Currents were acquired with Clampex ver.
(§3) Cells were voltage clamped at −40 mV.
(§4) For assessment of the efficacy of allosteric modulators on spontaneous activity, compounds were briefly applied (3–5 s) to achieve steady-state currents (IMod). […] The IMod was summed with IPTX (or subtracted for inhibitory modulators) and the Ispont calculated, as described by Eq. (2):2 Ispont(%)=[(IPTX+IMod)/(IPTX+IMax)]×100……………………………………

[2] = system: dorsal lateral geniculate nucleus (dLGN) thalamic relay neurons; assay: Tonic current in acute thalamic brain slices; format: cell-based, rat;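 for tonic current change with +PTX, Fig. 10b: Holding current density change on antagonist application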;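 for tonic current change with Gabazine, Fig. 10b: Holding current density change on antagonist application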
From the text: (§5) Adolescent male rats (P21–P28) were anaesthetised by inhalation with 5% isoflurane before dispatch and isolation of the brain in accordance with the United Kingdom Animals (Scientific Procedures) Act 1986. The brain was immersed in an ice-cold slicing solution containing (mM): 85 NaCl, 2.5 KCl, 1.25 NaH2PO4, 26 NaHCO3, 75 sucrose, 1 CaCl2, 4 MgCl2, 25 glucose and 2 kynurenic acid, (pH 7.4 when bubbled with 95% O2/5% CO2). Horizontal (hippocampal) and coronal (thalamic) sections (all 350 µm thick) were cut using a Leica VT1200S vibratome before transfer to a holding chamber at 37 °C. The solution was slowly exchanged over 1 h with aCSF containing (mM): 125 NaCl, 2.5 KCl, 1.25 NaH2PO4, 26 NaHCO3, 2 CaCl2, 1 MgCl2, 25 glucose and 2 kynurenic acid (pH 7.4 when bubbled with 95% O2/5% CO2) before maintaining the slices at room temperature prior to recording.
as §2
(§6) Recordings from hippocampal cultures used ~3–5 MΩ electrodes filled with an internal solution consisting of (mM): 140 CsCl, 2 NaCl, 10 HEPES, 5 EGTA, 2 MgCl2, 0.5 CaCl2, 2 Na2ATP, 0.5 Na2GTP, 2 QX-314, pH 7.3. Osmolarity was 300 ± 20 mOsm/L. Cells were perfused in the same Kreb’s solution described above, except for the addition of 2 mM kynurenic acid. Cells were voltage clamped at −60 mV. For current clamp, cells were recorded using an internal electrode solution consisting of (mM): 137 potassium gluconate, 3 KCl, 10 HEPES, 5 EGTA, 0.5 CaCl2, 2 MgCl2, 2 Na2ATP and 0.5 Na2GTP, pH 7.3. Osmolarity was 300 ± 20 mOsm/L. The external solution was as described for voltage-clamp experiments and the calculated junction potential was ~15 mV. Current was injected to hold cells at −70 mV if required. For slice recordings, slices were perfused in the aCSF described above, and the internal solution was the same as that used for cultured neuronal voltage-clamp recordings.

α4β3δ GABAARs = system: T1, α4β3δ GABAARs; assay: Single-channel recording of spontaneous currents, outside-out patches of HEK cells; format: cell-based, mouse; details: 100 μM PTX, absence of GABA
T1 construct: expressed in transfected cells; host or cells: HEK cells (outside-out patches)
Protocol: To limit ion channel density in individual patches, HEK cells were transfected with 5 ng α4, β3, δ and eGFP cDNAs. Resulting spontaneous single-channel currents were digitised at a sampling rate of 20 kHz and filtered at 5 kHz with a 4-pole Bessel filter (24 dB per octave). A fixed time resolution of 80 μs was used as a preset. Recordings were undertaken using thick-walled borosilicate patch pipettes (6–10 MΩ) filled with a solution containing (mM): 145 CsCl, 2.5 NaCl, 10 HEPES, 1 EGTA, 4 MgATP, pH 7.3. Osmolarity was 300 ± 20 mOsm/L. Cells were perfused with an external solution consisting of (mM): 145 NaCl, 2.5 KCl, 1 CaCl2, 1 MgCl2, 10 HEPES, 10 glucose, pH 7.3. Prior control recordings were obtained using untransfected HEK cells to identify endogenous channel currents.
Channel currents were digitally low pass filtered at 1–2 kHz prior to analysis. […] Channel dwell states were identified using a threshold cursor method. This state transition detection method for open and shut events was used to assemble an idealised record of the digitised data. Open times affected by channel stacking were not included in the analyses and sub-conductance states were also rare and excluded from the analysis.
The analysis of the dwell times for single-channel currents was performed by fitting a mixture of exponential components to the open time distributions. These defined the mean open times and their relative proportions (area of the components) based on using a Levenberg-Marquardt non-linear least-squares routine (WinEDR ver 3.8.7, courtesy of J Dempster, University of Strathclyde).

[3] = system: dentate gyrus granule cells (DGGCs); assay: Tonic current in acute hippocampal brain slices; format: cell-based, rat; details: for Change in holding current: DGGCs;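 for tonic current change with +PTX, Fig. 10a: Holding current density change on antagonist application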;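 for tonic current change with Gabazine, Fig. 10a: Holding current density change on antagonist application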
From the text: as §5, §2, §6

[4] = system: T2, α4β3^S408A,S409Aδ receptors; assay: Quantification of spontaneous activity (Ispont) in HEK cells, whole-cell patch clamp; format: cell-based, mouse; details: for Ispont during staurosporine application: α4β3S408A,S409Aδ, 200 nM staurosporine, individual cells
T2 construct: expressed in transfected cells; host or cells: HEK 293
From the text: as §1, §2, §3

[5] = system: T3, α4β3^S408D,S409Dδ receptors; assay: as above; format: cell-based, mouse; details: for Ispont during staurosporine application: α4β3S408D,S409Dδ, 200 nM staurosporine, individual cells
T3 construct: expressed in transfected cells; host or cells: HEK 293
From the text: as §1, §2, §3

α4β3δ receptors [6] = target: T4, α4β3δ receptors (UniProt P18506+P63080+Q9D6F4); format: cell-based, mouse; design: spontaneous activity, Supp. Fig. 3e: unit not given here; details: for Ispont in the presence of modulator: α4β3δ, PS 10 µM (Fig. 6c)
T4 construct: expressed in transfected cells; host or cells: HEK 293
T4 sequence (Q9D6F4 36-552): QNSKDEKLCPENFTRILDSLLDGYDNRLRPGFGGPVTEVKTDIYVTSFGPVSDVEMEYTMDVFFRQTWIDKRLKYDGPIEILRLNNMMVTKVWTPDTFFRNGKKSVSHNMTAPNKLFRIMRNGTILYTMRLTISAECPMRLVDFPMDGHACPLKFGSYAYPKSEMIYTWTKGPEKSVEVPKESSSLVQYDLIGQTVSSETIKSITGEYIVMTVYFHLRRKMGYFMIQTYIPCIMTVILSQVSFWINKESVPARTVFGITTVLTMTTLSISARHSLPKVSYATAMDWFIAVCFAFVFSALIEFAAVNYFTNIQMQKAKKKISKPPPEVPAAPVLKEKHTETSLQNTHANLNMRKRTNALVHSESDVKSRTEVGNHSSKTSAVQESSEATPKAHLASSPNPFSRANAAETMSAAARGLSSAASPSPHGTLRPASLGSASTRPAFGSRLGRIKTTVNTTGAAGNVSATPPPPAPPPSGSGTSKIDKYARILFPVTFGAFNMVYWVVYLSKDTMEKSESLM
T4 sequence (P63080 26-473): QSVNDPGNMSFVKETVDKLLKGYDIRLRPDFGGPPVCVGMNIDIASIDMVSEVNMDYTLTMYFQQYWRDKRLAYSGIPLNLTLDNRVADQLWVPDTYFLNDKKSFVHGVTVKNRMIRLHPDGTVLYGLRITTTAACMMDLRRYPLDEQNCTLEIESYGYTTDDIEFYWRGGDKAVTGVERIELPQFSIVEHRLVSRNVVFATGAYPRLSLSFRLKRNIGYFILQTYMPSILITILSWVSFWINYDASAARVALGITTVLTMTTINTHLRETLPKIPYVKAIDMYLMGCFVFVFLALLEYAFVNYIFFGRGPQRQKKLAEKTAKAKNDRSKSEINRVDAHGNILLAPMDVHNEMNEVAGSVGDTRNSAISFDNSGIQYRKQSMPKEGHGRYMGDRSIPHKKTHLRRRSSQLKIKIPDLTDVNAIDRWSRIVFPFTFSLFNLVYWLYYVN
T4 sequence (P18506 25-449): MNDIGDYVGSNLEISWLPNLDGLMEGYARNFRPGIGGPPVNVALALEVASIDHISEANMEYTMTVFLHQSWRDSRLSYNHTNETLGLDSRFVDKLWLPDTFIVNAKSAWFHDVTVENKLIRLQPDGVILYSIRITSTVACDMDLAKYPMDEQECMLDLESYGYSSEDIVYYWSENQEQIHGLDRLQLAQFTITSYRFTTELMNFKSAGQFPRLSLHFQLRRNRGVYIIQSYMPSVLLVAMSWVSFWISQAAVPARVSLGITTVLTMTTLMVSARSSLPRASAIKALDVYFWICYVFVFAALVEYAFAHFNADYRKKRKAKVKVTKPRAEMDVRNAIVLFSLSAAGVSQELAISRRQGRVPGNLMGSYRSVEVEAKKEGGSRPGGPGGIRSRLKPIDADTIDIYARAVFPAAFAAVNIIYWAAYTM
From the text: as §1, §2, §3, §4

α4β3^S409Aδ receptors = system: T5, α4β3^S409Aδ receptors; assay: Quantification of spontaneous activity (Ispont) in HEK cells, whole-cell patch clamp; format: cell-based, mouse; details: α4β3S409Aδ, PS 10 µM (Fig. 6c)
T5 construct: expressed in transfected cells; host or cells: HEK 293
From the text: as §1, §2, §3, §4

α4^Q246Mβ3δ receptors = system: T6, α4^Q246Mβ3δ receptors; assay: as above; format: cell-based, mouse; details: α4Q246Mβ3δ, PS 10 µM (Fig. 6c)
T6 construct: expressed in transfected cells; host or cells: HEK 293
From the text: as §1, §2, §3, §4

[7] = system: cultured hippocampal neurons; assay: Voltage clamp of spontaneous/tonic GABAAR currents in transfected cultured hippocampal neurons; format: cell-based, rat; details: for Effect on holding current: gabazine 1 μM; for spontaneous/tonic current, Supp. Fig. 4e: concanamycin treated (vs control), individual cells
Protocol: This media was replaced 2 h later with neurobasal-A media supplemented with 1% v/v B-27, 50 units/ml penicillin-G, 50 µg/ml streptomycin, 0.5% v/v glutamax and 35 mM glucose. These cells were transfected 6–8 days later using either the calcium phosphate protocol described above, or Effectene with a protocol as described by the manufacturer (Qiagen) using a total 0.8 μg of cDNA per coverslip. […] Neurons were used for electrophysiological recording or confocal imaging 5–9 days later.
as §2, §6

α4β3δ receptors [8] = target: T4, α4β3δ receptors; assay: Agonist-evoked whole-cell currents and their modulation by Zn2+ / DS2 in HEK cells; format: cell-based, mouse
From the text: as §1, §2, §3

α4β3 receptors = system: T7, α4β3 receptors; assay: as above; format: cell-based, mouse; design: GABA current, Supp. Fig. 2b / GABA + DS2 current, Supp. Fig. 2b / GABA current, Supp. Fig. 2a: unit not given here; details: GABA with DS2, individual cells
T7 construct: expressed in transfected cells; host or cells: HEK 293
From the text: as §1, §2, §3

[9] = PTX added after Gabazine, individual cells
[10] = Gabazine alone, individual cells
[11] = eGFP- and β3-expressing neurons, concanamycin A 0.5 μM

Protocol for β3 homomeric receptors: HEK 293 cells were maintained in Dulbecco’s modified Eagle’s medium supplemented with 10% v/v heat-inactivated fetal calf serum, 100 units/ml penicillin-G and 100 µg/ml streptomycin and incubated at 37 °C in humidified 95% air/5% CO2. […] Cells were maintained within a passage range of P12–35. Dissociated HEK cells were plated onto 22 mm glass coverslips (VWR) coated in poly-L-lysine (Sigma). Cells were transfected >1 h later using a calcium phosphate protocol whereby a transfection solution was prepared consisting of 20 μl of 340 mM CaCl2, 24 μl of 2× HBS (50 mM HEPES, 280 mM NaCl, 2.8 mM Na2HPO4) and 4 μg cDNA per coverslip. […] Cells were recorded from 24–48 h later.
For all electrophysiological experiments, cells were visualised using a Nikon Eclipse E600FN microscope. Whole-cell currents were recorded using an Axopatch 200B amplifier and digitised using a Digidata 1322 A (Axon Instruments). […]
HEK cells were recorded from using borosilicate glass electrodes with resistances ~3–5 MΩ when filled with an internal solution containing (mM): 1 MgCl2, 140 KCl, 11 EGTA, 10 HEPES, 1 CaCl2, 2 K2ATP, pH 7.2. Osmolarity was 300 ± 20 mOsm/L, measured using a vapour pressure osmometer (Model 5520, Wescor Inc). […]

PKA inhibitor peptide 14–22: selective PKA inhibitor peptide (GRTGRRNAI; UniProt P61925 15-23, looked up, fragment)
Ispont with PKA inhibitor in the patch electrode solution (α4β3δ receptors [1]; α4β3δ, PKI 1 μM internal, 2 min dialysis (Fig. 5d)): significantly reduced

CN([C@@H](Cc1ccc(OS(=O)(=O)c2cccc3cnccc23)cc1)C(=O)N1CCN(c2ccccc2)CC1)S(=O)(=O)c1cccc2cnccc12 [KN-62]
spontaneous activity, Supp. Fig. 3e (α4β3δ receptors [1]; KN-62 treated (vs control), individual cells): 9.722 and 13.6922 and 18.602 and 3.467 and 9.093 and 9.783 and 14.5969 and 3.449 and 5.659 | Effect on Ispont of internally applied CaMKII inhibitor (α4β3δ receptors [1]; α4β3δ, KN-62 3 µM internal): no effect

picrotoxin [PTX]
tonic current change with +PTX, Fig. 10b [2, 9]: 0.2529 and 0.032 and 0.04 and 0.1019 and 0.1492 and 0.1027 and 0.03878 and 0.06433 and 0.1595 and 0.03636 | Effect on residual tonic current ([2]; dLGN thalamic relay neurons, PTX 100 μM after gabazine): blocked | Effect on spontaneous single-channel currents (α4β3δ GABAARs): blocked | Change in holding current ([3]; PTX 100 μM after gabazine): large reduction in holding current | tonic current change with +PTX, Fig. 10a [3, 9]: 0.1792 and 0.4018 and 0.1492 and 0.2163 and 0.07528 and 0.1359 and 0.2209 and 0.2596 and 0.5835

CN[C@@H]1C[C@H]2O[C@@](C)([C@@H]1OC)n1c3ccccc3c3c4c(c5c6ccccc6n2c5c31)C(=O)NC4 [staurosporine]
Ispont during staurosporine application (α4β3δ receptors [1]; α4β3δ, time 1 min, individual cells): decreased significantly and 13.2% and 6.4% and 6.3% | Ispont during staurosporine application (α4β3δ receptors [1]; α4β3δ, time 10 min, individual cells): 9.3% and 12.3% and 3.2% and 4.6% | Ispont during staurosporine application (α4β3δ receptors [1]; α4β3δ, time 20 min, individual cells): 7.5% and 8% and 2.3% and 3.8% | Effect on Ispont over 20 min compared to control ([4]; phospho-null α4β3^S408A,S409Aδ, staurosporine 200 nM): no effect | Ispont during staurosporine application ([4]; time 1 min): 7.3% and 8.9% and 6.5% and 29.4% | Ispont during staurosporine application ([4]; time 10 min): 5.4% and 6.9% and 9.5% and 5.6% and 26.6% | Ispont during staurosporine application ([4]; time 20 min): 5.7% and 5.8% and 7.2% and 5% | Effect on Ispont over 20 min compared to control ([5]; phosphomimetic α4β3^S408D,S409Dδ, staurosporine 200 nM): no effect | Ispont during staurosporine application ([5]; time 1 min): 12.5% and 12.6% | Ispont during staurosporine application ([5]; time 10 min): 11.9% and 9.4% and 7.9% | Ispont during staurosporine application ([5]; time 20 min): 8.8% and 8.7% and 7.1%

CCCC(C)C1(CC)C(=O)NC(=O)NC1=O (stereo not drawn) [pentobarbital]
Whole-cell current evoked by pentobarbital (β3 homomeric receptors; β3, 100 µM pentobarbital, n = 11): 220 ± 94 pA

pregnenolone sulphate [Pregnenolone sulfate]
Ispont in the presence of modulator (α4β3δ receptors [6]): reduced | Ispont in the presence of modulator (α4β3δ receptors [6]; listed as PS): 5.825% and 4.865% and 6.452% and 3.37% and 4.547% and 9.251% and 6.244% and 4.926% | Ispont in the presence of modulator (α4β3^S409Aδ receptors): reduced | Ispont in the presence of modulator (α4β3^S409Aδ receptors; listed as PS): 0.7651% and 0.3749% and 0.1269% and 0.9165% and 2.143% and 0.1295% and 1.652% | Ispont in the presence of modulator (α4^Q246Mβ3δ receptors): reduced | Ispont in the presence of modulator (α4^Q246Mβ3δ receptors; listed as PS): 3.665% and 9.322% and 7.162% and 6.1828% and 3.237% and 4.8719% and 4.011%

COc1ccc(-c2ccc(=N)n(CCCC(=O)O)n2)cc1 [gabazine]
tonic current change with Gabazine, Fig. 10b [2, 10]: 0.2002 and 0.032 and 0.025 and 0.02996 and 0.07463 and 0.08562 and 0.04525 and 0.03574 and -0.03067 and 0.01818 | Effect on tonic current ([2]; dLGN thalamic relay neurons, gabazine 20 µM): part-inhibited | Effect on spontaneous holding current (α4β3δ receptors [6]; cells expressing α4, β3 and δ, gabazine 1 µM): behaved as an inverse agonist | Change in holding current ([3]; gabazine 20 µM): small increments in holding current | tonic current change with Gabazine, Fig. 10a [3, 10]: -0.04645 and -0.07728 and -0.0199 and 0.08319 and 0 and -0.01133 and -0.01699 and -0.02885 and -0.01144 | Effect on spontaneous holding current (β3 homomeric receptors; β3 alone, gabazine 1 µM): but not with β3 alone | Effect on holding current ([7]; eGFP-transfected neurons): small agonist effect | Effect on holding current ([7]; β3-transfected neurons): partial antagonism

C/C=C/[C@H]1O[C@@](O)([C@@H](C)[C@H](O)[C@H](C)[C@H]2OC(=O)/C(OC)=C/C(C)=C/[C@@H](C)[C@@H](O)[C@@H](CC)[C@@H](O)[C@H](C)C/C(C)=C/C=C/[C@@H]2OC)C[C@@H](O[C@H]2C[C@@H](O)[C@H](OC(N)=O)[C@@H](C)O2)[C@@H]1C [concanamycin A]
spontaneous/tonic current, Supp. Fig. 4e ([7]; eGFP neurons): 1.043 and 0.1205 and 0.1429 and 0.1839 and 0.303 and 0.1613 and 0.3626 and 0.3579 | Effect on IPSCs [7, 11]: abolished | Effect on PTX-sensitive spontaneous currents [7, 11]: without affecting | spontaneous/tonic current, Supp. Fig. 4e ([7]; β3 neurons): 1.595 and 1.13 and 1.667 and 1.221 and 1.725 and 1.692

O=C(Nc1c(-c2cccs2)nc2ccccn12)c1ccc(Cl)cc1 [DS2]
Effect on 0.3 μM GABA responses (α4β3δ receptors [8]; DS2 5 μM): potentiated | GABA + DS2 current, Supp. Fig. 2b (α4β3δ receptors [8]; GABA with DS2, individual cells): 1.82 and 1.25 and 0.43 and 1.45 and 3.44 | GABA + DS2 current, Supp. Fig. 2b (α4β3 receptors): 0.04 and 0.14 and 0.11 and 0.09 and 0.26

CN(C)CCCn1cc(C2=C(c3c[nH]c4ccccc34)C(=O)NC2=O)c2ccccc21 [bisindolylmaleimide-I]
Ispont with PKC inhibitor in the patch electrode solution (α4β3δ receptors [1]; α4β3δ, Bis-I 200 nM internal, 2 min dialysis (Fig. 5e)): significantly reduced
